From ChEMBL document CHEMBL4359860, “Tacrine-O-protected phenolics heterodimers as multitarget-directed ligands against Alzheimer's disease: Selective subnanomolar BuChE inhibitors” (Eur J Med Chem, 2019)
pIC50, pKi: −log10 of the molar value. Calls of active or inactive are those of the source. The rule behind the calls is not given here.

Experiments:
Acetylcholinesterase [1] = biological target: T1, Acetylcholinesterase (Electrophorus electricus, UniProt O42275)
Description: Inhibition of electric eel AChE assessed as dissociation constant for enzyme-inhibitor complex using acetylthiocholine iodide as substrate measured for 125 secs by Ellman's method

Acetylcholinesterase [2] = biological target: T1, Acetylcholinesterase; remark: listed apart in the source
Description: Inhibition of electric eel AChE assessed as dissociation constant for enzyme-substrate-inhibitor complex using acetylthiocholine iodide as substrate measured for 125 secs by Ellman's method

Cholinesterase [3] = biological target: T2, Cholinesterase (Equus caballus, UniProt P81908)
T2 sequence (P81908 whole entry): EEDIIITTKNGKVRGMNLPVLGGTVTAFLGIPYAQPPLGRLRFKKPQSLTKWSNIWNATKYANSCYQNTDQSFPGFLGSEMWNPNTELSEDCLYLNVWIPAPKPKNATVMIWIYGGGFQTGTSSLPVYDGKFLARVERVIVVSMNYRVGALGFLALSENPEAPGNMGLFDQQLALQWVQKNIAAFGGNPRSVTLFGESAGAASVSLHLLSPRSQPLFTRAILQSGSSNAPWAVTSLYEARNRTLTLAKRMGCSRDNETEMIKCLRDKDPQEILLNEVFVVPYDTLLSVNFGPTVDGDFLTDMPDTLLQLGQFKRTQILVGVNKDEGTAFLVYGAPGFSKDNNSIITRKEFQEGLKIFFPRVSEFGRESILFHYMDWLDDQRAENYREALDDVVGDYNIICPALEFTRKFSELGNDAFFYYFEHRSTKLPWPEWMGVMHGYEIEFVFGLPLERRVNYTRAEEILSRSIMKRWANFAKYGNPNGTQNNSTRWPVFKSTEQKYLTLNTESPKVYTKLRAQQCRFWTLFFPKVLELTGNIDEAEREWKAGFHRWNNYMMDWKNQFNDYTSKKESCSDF
Description: Inhibition of equine serum BuChE assessed as dissociation constant for enzyme-inhibitor complex using butyrylthiocholine iodide as substrate measured for 125 secs by Ellman's method

Cholinesterase [4] = biological target: T2, Cholinesterase; remark: listed apart in the source
Description: Inhibition of equine serum BuChE assessed as dissociation constant for enzyme-substrate-inhibitor complex using butyrylthiocholine iodide as substrate measured for 125 secs by Ellman's method

[5] = biological target: Cholinesterase (Equus caballus) (UniProt P81908)
Cholinesterase (Equus caballus), sequence (P81908 whole entry): as above

Acetylcholinesterase [6] = biological target: Acetylcholinesterase (Homo sapiens, UniProt P22303); assay: Inhibition of human recombinant AChE expressed in HEK293 cells using […] as substrate preincubated with enzyme for 20 mins followed by substrate addition and measured after 5 mins by Ellman's method
Acetylcholinesterase (Homo sapiens, UniProt P22303), sequence (P22303 whole entry): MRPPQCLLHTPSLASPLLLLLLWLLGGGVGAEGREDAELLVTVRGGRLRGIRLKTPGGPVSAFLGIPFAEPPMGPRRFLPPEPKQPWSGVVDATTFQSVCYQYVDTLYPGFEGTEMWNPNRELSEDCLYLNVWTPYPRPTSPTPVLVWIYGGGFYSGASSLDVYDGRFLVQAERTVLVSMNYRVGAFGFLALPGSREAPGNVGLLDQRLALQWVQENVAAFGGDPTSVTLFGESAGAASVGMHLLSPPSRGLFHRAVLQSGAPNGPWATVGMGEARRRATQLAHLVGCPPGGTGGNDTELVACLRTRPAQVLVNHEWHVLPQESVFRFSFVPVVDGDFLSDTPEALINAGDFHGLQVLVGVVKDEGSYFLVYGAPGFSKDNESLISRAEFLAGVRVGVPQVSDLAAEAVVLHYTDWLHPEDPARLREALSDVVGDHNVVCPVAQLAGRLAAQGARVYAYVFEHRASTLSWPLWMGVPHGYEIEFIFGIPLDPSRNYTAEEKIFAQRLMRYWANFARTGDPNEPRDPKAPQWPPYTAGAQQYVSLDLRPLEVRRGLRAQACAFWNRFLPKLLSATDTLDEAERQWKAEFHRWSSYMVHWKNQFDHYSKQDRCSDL

Cholinesterase [7] = biological target: T3, Cholinesterase (Homo sapiens, UniProt P06276); assay: Inhibition of human serum BuChe by Ellman's method
T3 sequence (P06276 whole entry): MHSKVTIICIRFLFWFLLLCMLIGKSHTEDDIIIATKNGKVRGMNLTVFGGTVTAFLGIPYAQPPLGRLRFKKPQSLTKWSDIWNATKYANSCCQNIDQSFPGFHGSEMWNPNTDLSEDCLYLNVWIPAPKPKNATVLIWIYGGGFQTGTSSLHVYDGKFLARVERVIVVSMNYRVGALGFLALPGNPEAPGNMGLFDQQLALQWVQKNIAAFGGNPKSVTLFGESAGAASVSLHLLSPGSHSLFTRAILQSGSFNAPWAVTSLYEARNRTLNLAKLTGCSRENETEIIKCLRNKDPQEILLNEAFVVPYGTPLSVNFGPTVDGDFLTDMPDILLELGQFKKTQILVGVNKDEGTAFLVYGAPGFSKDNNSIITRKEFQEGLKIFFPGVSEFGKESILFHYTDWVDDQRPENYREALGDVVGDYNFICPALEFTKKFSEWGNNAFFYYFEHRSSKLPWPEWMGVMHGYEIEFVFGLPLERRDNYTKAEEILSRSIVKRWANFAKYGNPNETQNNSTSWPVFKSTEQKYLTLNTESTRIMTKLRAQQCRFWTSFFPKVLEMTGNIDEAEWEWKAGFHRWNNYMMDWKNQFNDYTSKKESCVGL

Primary neuron = assay: Neuroprotective activity against serum/K+ deprivation induced cytotoxicity in rat primary neuronal cells up to 10 uM by MTT assay; assay type: functional, cell-based
[8] = tested on: Cerebellar granule neurone; assay: Neuroprotective activity against 6-OHDA-induced cytotoxicity in rat primary cerebellar granule neuron at 1 to 25 uM by MTT assay; assay type: functional, cell-based
[9] = tested on: Cerebellar granule neurone; assay: Cytotoxicity in rat Primary cerebellar granule neuron assessed as cell viability up to 5 uM after 24 hrs by MTT assay; assay type: cell-based
[10] = Cytotoxicity against human HepG2 cells assessed as cell survival at 1 to 25 uM after 24 hrs by MTT assay relative to control; assay type: cell-based; details: read-out: Activity
[11] = Stability of compound in human plasma at 10 uM measured up to 360 mins by LC-MS analysis; assay type: ADME, cell-free; details: 6 h
Cholinesterase [12] = biological target: T3, Cholinesterase; assay: Potency index, ratio of tacrine IC50 to compound IC50 for human serum BuChe by Ellman's method
[13] = biological target: Amyloid-beta precursor protein (Homo sapiens) (UniProt P05067); details: at 50 µM
Amyloid-beta precursor protein (Homo sapiens), sequence (P05067 whole entry): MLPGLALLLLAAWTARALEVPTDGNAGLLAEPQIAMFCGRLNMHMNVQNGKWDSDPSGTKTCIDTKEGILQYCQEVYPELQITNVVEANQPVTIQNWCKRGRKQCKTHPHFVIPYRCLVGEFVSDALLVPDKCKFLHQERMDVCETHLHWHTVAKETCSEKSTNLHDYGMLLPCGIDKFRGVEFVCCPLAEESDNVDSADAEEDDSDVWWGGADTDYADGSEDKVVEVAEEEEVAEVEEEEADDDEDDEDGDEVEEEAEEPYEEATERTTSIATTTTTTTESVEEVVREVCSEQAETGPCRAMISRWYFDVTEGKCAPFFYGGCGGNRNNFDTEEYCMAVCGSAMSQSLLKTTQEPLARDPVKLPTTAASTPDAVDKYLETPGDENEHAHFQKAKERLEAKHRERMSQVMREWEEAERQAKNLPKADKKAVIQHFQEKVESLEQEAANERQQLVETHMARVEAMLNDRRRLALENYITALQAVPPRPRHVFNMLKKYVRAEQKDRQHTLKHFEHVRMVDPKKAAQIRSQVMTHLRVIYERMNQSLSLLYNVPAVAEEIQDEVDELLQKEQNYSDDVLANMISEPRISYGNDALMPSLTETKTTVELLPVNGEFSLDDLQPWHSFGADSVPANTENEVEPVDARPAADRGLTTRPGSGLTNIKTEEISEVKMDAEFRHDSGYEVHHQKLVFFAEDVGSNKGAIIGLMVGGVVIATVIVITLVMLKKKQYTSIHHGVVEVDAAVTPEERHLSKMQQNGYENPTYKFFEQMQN
Description: Inhibition of amyloid beta (1 to 42) (unknown origin) self aggregation at 50 uM incubated for 48 hrs by thioflavin-T fluorescence method relative to control

[14] = biological target: Cholinesterase (Equus caballus) (UniProt P81908); remark: listed apart in the source
A549 = assay: Antiproliferative activity against human A549 cells assessed as growth inhibition after 48 hrs by SRB assay; assay type: functional; details: A549, 48 h
HBL-100 = assay: Antiproliferative activity against human HBL100 cells assessed as growth inhibition after 48 hrs by SRB assay; assay type: functional; details: HBL-100, 48 h
HeLa = assay: Antiproliferative activity against human HeLa cells assessed as growth inhibition after 48 hrs by SRB assay; assay type: functional
SW1573 = assay: Antiproliferative activity against human SW1573 cells assessed as growth inhibition after 48 hrs by SRB assay; assay type: functional; details: SW1573, 48 h
T47D [15] = assay: Antiproliferative activity against human T47D cells assessed as growth inhibition after 48 hrs by SRB assay; assay type: functional
WiDr [16] = assay: Antiproliferative activity against human WiDr cells assessed as growth inhibition after 48 hrs by SRB assay; assay type: functional
[17] = Cytotoxicity against human hTERT-BJ cells assessed as growth inhibition after 48 hrs by SRB assay; assay type: cell-based
T47D [18] = assay: Potency index, ratio of 5-FU GI50 to compound GI50 for human T47D cells after 48 hrs by SRB assay; assay type: functional
WiDr [19] = assay: Potency index, ratio of 5-FU GI50 to compound GI50 for human WiDr cells after 48 hrs by SRB assay; assay type: functional
[20] = Selectivity index, ratio of GI50 for human hTERT-BJ cells to GI50 for human T47D cells after 48 hrs by SRB assay; assay type: toxicity; details: hTERT-BJ cells and T47D cells, read-out: RatioGI50
[21] = Selectivity index, ratio of GI50 for human hTERT-BJ cells to GI50 for human WiDr cells after 48 hrs by SRB assay; assay type: toxicity; details: hTERT-BJ cells and WiDr cells, read-out: RatioGI50
[22] = Cytotoxicity in rat Primary cerebellar granule neuron assessed as cell viability at 1 uM after 24 hrs by MTT assay; assay type: cell-based, Cerebellar granule neurone; details: primary cerebellar granule neurons, read-out: Activity
HepG2 = assay: Cytotoxicity against human HepG2 cells at 1 to 25 uM after 24 hrs by MTT assay; assay type: cell-based; details: hepg2, 24 h

T1 sequence (O42275 whole entry): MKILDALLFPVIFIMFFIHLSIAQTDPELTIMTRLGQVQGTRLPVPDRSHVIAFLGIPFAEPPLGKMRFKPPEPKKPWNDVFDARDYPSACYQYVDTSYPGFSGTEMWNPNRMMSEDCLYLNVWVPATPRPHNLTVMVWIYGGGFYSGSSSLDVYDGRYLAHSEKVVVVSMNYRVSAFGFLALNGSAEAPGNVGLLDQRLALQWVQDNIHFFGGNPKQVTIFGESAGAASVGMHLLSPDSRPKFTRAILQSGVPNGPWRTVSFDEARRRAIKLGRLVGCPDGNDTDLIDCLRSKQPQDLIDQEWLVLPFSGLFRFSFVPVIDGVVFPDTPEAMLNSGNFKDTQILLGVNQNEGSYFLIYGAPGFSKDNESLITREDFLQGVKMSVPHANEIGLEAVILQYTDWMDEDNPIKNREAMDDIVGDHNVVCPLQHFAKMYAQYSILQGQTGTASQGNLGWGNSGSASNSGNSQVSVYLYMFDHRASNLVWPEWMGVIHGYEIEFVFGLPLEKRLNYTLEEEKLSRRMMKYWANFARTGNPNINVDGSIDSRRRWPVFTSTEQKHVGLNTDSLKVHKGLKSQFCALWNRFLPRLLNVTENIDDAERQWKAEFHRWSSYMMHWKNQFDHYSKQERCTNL

SMILES	pKi (Acetylcholinesterase [1])	pKi (Acetylcholinesterase [2])	pKi (Cholinesterase [3])	pKi (Cholinesterase [4])	pIC50 (Acetylcholinesterase [6])	pIC50 (Cholinesterase [7])	also measured
COc1ccc(CNc2c3c(nc4ccccc24)CCCC3)cc1OC	6.19	6.68	7.51	8.19	–	–	–
Oc1ccc(CCOCCCCCNc2c3c(nc4ccccc24)CCCC3)cc1O	6.68	7.11	7.37	8.05	6.27	7.45	inhibition [5]: Active
COc1ccc(CCOCCCCCNc2c3c(nc4ccccc24)CCCC3)cc1OC	6.77	7.26	8.15	8.72	6.77	9.29	Activity (Primary neuron): Active; Activity [8]: inactive; Activity [9]: Non-Toxic; viability at 24 h, 25 µM [10]: 60 to 70%; Stability [11]: Stable; Ratio IC50 (Cholinesterase [12]): 85; inhibition [13]: 63.8%
C(=N\c1c2c(nc3ccccc13)CCCC2)/c1cc(OCc2ccccc2)c(OCc2ccccc2)c(OCc2ccccc2)c1	5.64	5.52	6.15	6.72	–	–	–
Oc1ccc(CCNc2c3c(nc4ccccc24)CCCC3)cc1O	6.06	6.23	6.89	7.55	–	–	–
Oc1ccc(CCOCCCCCNc2c3c(nc4ccccc24)CCCC3)cc1	6.85	7.00	–	8.35	6.85	8.22	inhibition [14]: Active; inhibition [13]: 54.4%
COc1ccc(CCOCCCCCNc2c3c(nc4ccccc24)CCCC3)cc1	7.12	7.12	7.54	8.54	6.67	8.53	inhibition [13]: 63.5%
c1ccc2c(N3CCCCC3)c3c(nc2c1)CCCC3	5.74	5.60	5.72	6.56	–	–	GI50 (A549): 11000 nM; GI50 (HBL-100): 19000 nM; GI50 (HeLa): 13000 nM; GI50 (SW1573): 13000 nM; GI50 (T47D [15]): 5200 nM; GI50 (WiDr [16]): 4500 nM; GI50 at 48 h [17]: 25000 nM; RatioGI50 (T47D [18]): 10; RatioGI50 (WiDr [19]): 10; selectivity ratio at 48 h [20]: 5; selectivity ratio at 48 h [21]: 5
COc1ccc(/C=N/c2c3c(nc4ccccc24)CCCC3)cc1OC	5.60	5.72	6.57	7.46	–	–	inhibition [5]: Active; GI50 (A549): 34000 nM; GI50 (HBL-100): 43000 nM; GI50 (HeLa): 43000 nM; GI50 (SW1573): 39000 nM; GI50 (T47D [15]): 35000 nM; GI50 (WiDr [16]): 31000 nM; GI50 at 48 h [17]: 16000 nM
Oc1ccc(CNc2c3c(nc4ccccc24)CCCC3)cc1	6.43	7.09	7.92	8.49	–	–	inhibition [5]: Active
Oc1ccc(CNc2c3c(nc4ccccc24)CCCC3)cc1O	6.72	6.72	7.60	8.49	7.00	7.13	–
O=c1[nH]cc(F)c(=O)[nH]1 [FLUOROURACIL]	–	–	–	–	–	–	GI50 (HBL-100): 5500 nM; GI50 (HeLa): 15000 nM; GI50 (SW1573): 4300 nM; GI50 (T47D [15]): 47000 nM; GI50 (WiDr [16]): 49000 nM
c1ccc(COc2ccc(CCNc3c4c(nc5ccccc35)CCCC4)cc2)cc1	5.80	6.21	7.66	8.96	–	–	–
Oc1ccc(/C=N/c2c3c(nc4ccccc24)CCCC3)cc1O	5.68	6.09	7.96	8.72	6.22	7.38	–
C(=N\c1c2c(nc3ccccc13)CCCC2)/c1ccc(OCc2ccccc2)c(OCc2ccccc2)c1	4.62	4.70	6.20	6.76	–	–	–
c1ccc(COc2ccc(CCOCCCCCNc3c4c(nc5ccccc35)CCCC4)cc2)cc1	6.96	6.96	8.72	8.82	6.34	8.16	inhibition [13]: 70%
C(=N\c1c2c(nc3ccccc13)CCCC2)/c1ccc(OCc2ccccc2)cc1	4.41	4.64	5.53	6.19	–	–	–
c1ccc(COc2ccc(CCNc3c4c(nc5ccccc35)CCCC4)cc2OCc2ccccc2)cc1	5.80	6.21	7.66	8.96	–	–	–
Oc1ccc(/C=N/c2c3c(nc4ccccc24)CCCC3)cc1	5.52	5.74	–	7.77	5.83	6.71	inhibition [14]: Active
c1ccc2c(N3CCCC3)c3c(nc2c1)CCCC3	5.49	–	5.92	6.52	–	–	GI50 (A549): 24000 nM; GI50 (HBL-100): 27000 nM; GI50 (HeLa): 18000 nM; GI50 (SW1573): 26000 nM; GI50 (T47D [15]): 18000 nM; GI50 (WiDr [16]): 21000 nM; GI50 at 48 h [17]: 50000 nM
COc1ccc(CNCCCCCNc2c3c(nc4ccccc24)CCCC3)cc1OC	6.80	6.92	7.52	8.00	–	–	–
Oc1ccc(CNCCCCCCNc2c3c(nc4ccccc24)CCCC3)cc1O	6.92	7.24	8.10	8.77	7.54	7.64	–
Oc1ccc(CCNc2c3c(nc4ccccc24)CCCC3)cc1	6.96	7.49	6.74	–	–	–	inhibition [14]: Active
BrCCCCCOCCc1ccc(OCc2ccccc2)cc1	–	–	–	–	–	–	GI50 (A549): 93000 nM; GI50 (HBL-100): > 100000 nM; GI50 (HeLa): > 100000 nM; GI50 (SW1573): > 100000 nM; GI50 (T47D [15]): 92000 nM; GI50 (WiDr [16]): > 100000 nM
c1ccc(COc2ccc(CCOCCCCCNc3c4c(nc5ccccc35)CCCC4)cc2OCc2ccccc2)cc1	6.47	6.89	8.34	8.57	6.30	9.30	Activity [8]: inactive; viability at 24 h, 1 µM [22]: 50%; Activity (HepG2): Toxic; Ratio IC50 (Cholinesterase [12]): 85; inhibition [13]: 75.3%
Oc1cc(/C=N/c2c3c(nc4ccccc24)CCCC3)cc(O)c1O	6.40	6.77	7.29	8.24	5.98	6.92	–
